From the NIST ThermoML archive (doi:10.1016/j.jct.2013.01.013)

Assay: xn = mol fraction of the nth substance listed
Settings: 101 kPa, Liquid; for speed of sound: Linear variable-path acoustic interferometer; for mass density: Pycnometric method; for viscosity: Capillary tube (Ostwald / Ubbelohde) method

C=C(C)C(=O)OC [methyl methacrylate] + CN(C)C=O
Settings | mass density [kg/m3] | speed of sound [m/s] | viscosity [mPa·s]
303.15 K, x1 = 0.0696 | 939.58 | – | –
303.15 K, x1 = 0.1417 | 939.03 | – | –
303.15 K, x1 = 0.211 | 938.49 | – | –
303.15 K, x1 = 0.2855 | 937.9 | – | –
303.15 K, x1 = 0.3573 | 937.33 | – | –
303.15 K, x1 = 0.4308 | 936.73 | – | –
303.15 K, x1 = 0.5042 | 936.13 | – | –
303.15 K, x1 = 0.578 | 935.52 | 1292.3 | –
303.15 K, x1 = 0.6552 | 934.88 | 1270.3 | –
303.15 K, x1 = 0.7204 | 934.33 | 1251.4 | –
303.15 K, x1 = 0.7873 | 933.76 | 1231.8 | –
303.15 K, x1 = 0.8548 | 933.19 | 1211.8 | –
303.15 K, x1 = 0.9268 | 932.55 | 1190.4 | –
303.15 K, x1 = 1 | 931.89 | 1168.5 | –
308.15 K, x1 = 0.0696 | 934.99 | 1411 | 0.694
308.15 K, x1 = 0.1417 | 934.35 | 1392.3 | 0.6678
308.15 K, x1 = 0.211 | 933.72 | 1374.3 | 0.6435
308.15 K, x1 = 0.2855 | 933.03 | 1354.7 | 0.6191
308.15 K, x1 = 0.3573 | 932.36 | 1335.6 | 0.5978
308.15 K, x1 = 0.4308 | 931.67 | 1315.7 | 0.5793
308.15 K, x1 = 0.5042 | 930.98 | 1295.5 | 0.563
308.15 K, x1 = 0.578 | 930.28 | 1275 | 0.5488
308.15 K, x1 = 0.6552 | 929.55 | 1253.3 | 0.5358
308.15 K, x1 = 0.7204 | 928.93 | 1234.7 | 0.5268
308.15 K, x1 = 0.7873 | 928.28 | 1215.4 | 0.5188
308.15 K, x1 = 0.8548 | 927.63 | 1195.7 | 0.5113
308.15 K, x1 = 0.9268 | 926.91 | 1174.4 | 0.5038
308.15 K, x1 = 1 | 926.15 | 1152.6 | 0.496
313.15 K, x1 = 0.0696 | 930.4 | 1393.7 | 0.662
313.15 K, x1 = 0.1417 | 929.67 | 1375.1 | 0.6373
313.15 K, x1 = 0.211 | 928.95 | 1357.1 | 0.6142
313.15 K, x1 = 0.2855 | 928.16 | 1337.5 | 0.5913
313.15 K, x1 = 0.3573 | 927.4 | 1318.4 | 0.5713
313.15 K, x1 = 0.4308 | 926.61 | 1298.4 | 0.5529
313.15 K, x1 = 0.5042 | 925.83 | 1278.3 | 0.5375
313.15 K, x1 = 0.578 | 925.04 | 1257.9 | 0.5237
313.15 K, x1 = 0.6552 | 924.22 | 1236.2 | 0.5115
313.15 K, x1 = 0.7204 | 923.53 | 1217.7 | 0.503
313.15 K, x1 = 0.7873 | 922.81 | 1198.4 | 0.4951
313.15 K, x1 = 0.8548 | 922.07 | 1178.7 | 0.4875
313.15 K, x1 = 0.9268 | 921.26 | 1157.4 | 0.4796
313.15 K, x1 = 1 | 920.41 | 1135.4 | 0.4723
318.15 K, x1 = 0.0696 | 925.81 | 1375.2 | 0.6419
318.15 K, x1 = 0.1417 | 924.99 | 1356.8 | 0.6179
318.15 K, x1 = 0.211 | 924.18 | 1338.9 | 0.5953
318.15 K, x1 = 0.2855 | 923.29 | 1319.4 | 0.5728
318.15 K, x1 = 0.3573 | 922.44 | 1300.3 | 0.553
318.15 K, x1 = 0.4308 | 921.55 | 1280.5 | 0.5345
318.15 K, x1 = 0.5042 | 920.68 | 1260.5 | 0.5185
318.15 K, x1 = 0.578 | 919.8 | 1240.2 | 0.5045
318.15 K, x1 = 0.6552 | 918.89 | 1218.7 | 0.4925
318.15 K, x1 = 0.7204 | 918.12 | 1200.3 | 0.4837
318.15 K, x1 = 0.7873 | 917.33 | 1181.2 | 0.475
318.15 K, x1 = 0.8548 | 916.51 | 1161.6 | 0.467
318.15 K, x1 = 0.9268 | 915.61 | 1140.4 | 0.4583
318.15 K, x1 = 1 | 914.66 | 1118.3 | 0.4499
